“Also recorded” adds a separate entry of the source. Read-outs that look alike come from different tables or passages of the source.
Assays:
[1] = system: Streptococcus pyogenes 65-A; assay: In vivo efficacy against systemic infections in mice (intraperitoneal infection); parameters: species or system male mice (ddY); conditions: 168 h, po, twice, about 5 minutes and 6 hours after intraperitoneal infection, observed 7 days
Method: (§1) Each of the solutions was orally administered to mice infected with each of test organisms under the conditions described below, and the medium effective doses (ED50) obtained are shown in Table II. Male mice (ddY) weighing about 20 g (2) Streptococcus pyogenes 65-A: Intraperitoneal infection with about 3×10^7 cells per mouse suspended in barin heart infusion broth. Twice, about 5 minutes and 6 hours after infection. |Streptococcus pyogenes 65-A |Escherichia coli P-5101 for 7 days | The numerals in the table show ED50 (mg/kg). ED50 values were | calculated in accordance with the BehrensKaerber method (Arch. Exp. Path. | Pharm., 162, 480 (1931)). | po: oral administration.

[2] = system: Gram-positive and Gram-negative bacteria including Pseudomonas aeruginosa; assay: In vitro antibacterial activity, overall; type: cell-based; conditions: for in vitro antibacterial activity compared with known compounds (in words): b258: Gram-negative bacteria, versus Compounds A, B, D and E, b33: versus compounds A and B; for antibacterial activity (in words): in vitro, Gram-positive and Gram-negative bacteria
Method: (§2) The minimum inhibitory concentrations (MIC, μg/ml) of the following compounds in vitro were measured by the agar dilution method of [Chemotherapy, Vol. 22, No. 16, page 1126 (1974)].

Escherichia coli P-5101 [3] = assay: In vivo efficacy against systemic infections in mice (intraperitoneal infection); parameters: species or system male mice (ddY); conditions: P5101, 168 h, po, twice, about 5 minutes and 6 hours after intraperitoneal infection, observed 7 days
Method: as §1, with “(3) Escherichia coli P-5101:” for “(2) Streptococcus pyogenes 65-A:”, “9×10^6” for “3×10^7”, “trypto-soy broth with 4% mucin.” for “barin heart infusion broth.”, “infection.” for “infection. |Streptococcus pyogenes 65-A”

in vivo = conditions: for LD50 at 168 h: mouse, in vivo, po; for acute oral toxicity (in words): hydrochloride
Method: A solution containing each of Compounds 1 and 2 of this invention in various concentrations was orally given to male mice (ddY) at a dose of 0.1 ml per 10 g of body weight. The number of dead mice was counted after 7 days, and the value of median lethal dose (LD50, mg/kg) was calculated in accordance with the Behrens-Kaerber method.

[4] = system: Gram-positive and Gram-negative bacteria including Pseudomonas aeruginosa; assay: In vivo efficacy against systemic infections, overall; parameters: species or system male mice (ddY); conditions: for therapeutic effect on systemic infections (in words): Gram-positive and Gram-negative bacteria; for therapeutic effect compared with Compound C (in words): systemic infections with Gram-negative bacteria including Pseudomonas aeruginosa
Method: Compounds 1, 2 and C were each dissolved in deionized water or suspended in a 0.2% aqueous solution of CMC. Each of the solutions was orally administered to mice infected with each of test organisms under the conditions described below, and the medium effective doses (ED50) obtained are shown in Table II.
Male mice (ddY) weighing about 20 g
Twice, about 5 minutes and 6 hours after infection.

[5] = system: Escherichia coli NIHJ JC-2; assay: In vitro antibacterial activity (MIC, agar dilution method); type: cell-based
Method: as §2

[6] = system: Salmonella typhimurium S-9; assay: as above; type: cell-based; conditions: Salmonella enterica; Salmonella typhimurium S-9; agar dilution; read-out: minimum inhibitory concentration (MIC)
Method: as §2

Proteus morganii Kono = assay: as above; type: cell-based; conditions: Morganella morganii; Proteus morganii Kono; agar dilution; read-out: minimum inhibitory concentration (MIC)
Method: as §2

[7] = system: Staphylococcus aureus Smith; assay: as above; type: cell-based; conditions: Staphylococcus aureus Smith; agar dilution; read-out: minimum inhibitory concentration (MIC)
Method: as §2

Shigella flexneri 2a = assay: as above; type: cell-based; conditions: read-out: minimum inhibitory concentration (MIC)
Method: as §2

[8] = system: Streptococcus pyogenes 65A; assay: as above; type: cell-based; conditions: Streptococcus pyogenes 65A; agar dilution; read-out: minimum inhibitory concentration (MIC)
Method: as §2

[9] = system: Staphylococcus aureus 209P JC-1; assay: as above; type: cell-based; conditions: Staphylococcus aureus 209P JC-1; agar dilution; read-out: minimum inhibitory concentration (MIC)
Method: as §2

Escherichia coli P-140a = assay: as above; type: cell-based; conditions: P140A; Escherichia coli P-140a; agar dilution; read-out: minimum inhibitory concentration (MIC)
Method: as §2

[10] = system: Staphylococcus aureus No. 80; assay: as above; type: cell-based
Method: as §2

Proteus mirabilis P-2381 = assay: as above; type: cell-based; conditions: P2381; Proteus mirabilis P-2381; agar dilution; read-out: minimum inhibitory concentration (MIC)
Method: as §2

[11] = system: Salmonella enteritidis No. 1891; assay: as above; type: cell-based; conditions: Salmonella enterica; Salmonella enteritidis No. 1891; agar dilution; read-out: minimum inhibitory concentration (MIC)
Method: as §2

Escherichia coli P-5101 [12] = assay: as above; type: cell-based; conditions: P5101; Escherichia coli P-5101; agar dilution; read-out: minimum inhibitory concentration (MIC)
Method: as §2

[13] = system: Shigella flexneri 4a P-330; assay: as above; type: cell-based; conditions: 4AP330, read-out: minimum inhibitory concentration (MIC)
Method: as §2

[14] = system: Serratia marcescens IFO 3736; assay: as above; type: cell-based; conditions: IFO3736; Serratia marcescens IFO 3736; agar dilution; read-out: minimum inhibitory concentration (MIC)
Method: as §2

[15] = system: Staphylococcus aureus No. 50774; assay: as above; type: cell-based; conditions: Staphylococcus aureus No. 50774; agar dilution; read-out: minimum inhibitory concentration (MIC)
Method: as §2

[16] = system: Corynebacterium pyogenes C-21; assay: as above; type: cell-based; conditions: C21; Corynebacterium pyogenes C-21; agar dilution; read-out: minimum inhibitory concentration (MIC)
Method: as §2

[17] = system: Pseudomonas aeruginosa No. 12; assay: as above; type: cell-based; conditions: Pseudomonas aeruginosa No. 12; agar dilution; read-out: minimum inhibitory concentration (MIC)
Method: as §2

[18] = system: Klebsiella pneumoniae No. 13; assay: as above; type: cell-based; conditions: Klebsiella pneumoniae No. 13; agar dilution; read-out: minimum inhibitory concentration (MIC)
Method: as §2

| SMILES | ED50 [1] [mg/kg] | in vitro antibacterial activity compared with known compounds (in words) [2] | antibacterial activity (in words) [2] | ED50 (Escherichia coli P-5101 [3]) [mg/kg] | LD50 at 168 h (in vivo) [mg/kg] | acute oral toxicity (in words) (in vivo) | therapeutic effect on systemic infections (in words) [4] | therapeutic effect compared with Compound C (in words) [4] | MIC [6] [µg/mL] | MIC (Proteus morganii Kono) [µg/mL] | MIC [7] [µg/mL] | MIC (Shigella flexneri 2a) [µg/mL] | MIC [8] [µg/mL] | MIC [9] [µg/mL] | MIC (Escherichia coli P-140a) [µg/mL] | MIC (Proteus mirabilis P-2381) [µg/mL] | MIC [11] [µg/mL] | MIC (Escherichia coli P-5101 [12]) [µg/mL] | MIC [13] [µg/mL] | MIC [14] [µg/mL] | further results |
| --- | --- | --- | --- | --- | --- | --- | --- | --- | --- | --- | --- | --- | --- | --- | --- | --- | --- | --- | --- | --- | --- |
| CCn1cc(C(=O)O)c(=O)c2cc(F)c(N3CCC(N)C3)nc21.Cl (stereo not shown) [Compound 1, 7-(3-Amino-1-pyrrolidinyl)-1-ethyl-6-fluoro-1,4-dihydro-4-oxo-1,8-naphthyridine-3-carboxylic acid hydrochloride] | 21 | far better in vitro antibacterial activity | very high antibacterial activities | 1.7 | > 2000 | very weak; also recorded: low oral toxicity | potent therapeutic effects | better therapeutic effects | 0.1 | 0.2 | 0.39 | 0.1 | 1.56 | 0.2 | < 0.05 | 0.39 | 0.1 | 0.1 | 0.1 | 0.39 | MIC ([5]; NIHJJC2, Escherichia coli NIHJ JC-2, agar dilution, read-out: minimum inhibitory concentration (MIC)): 0.2 µg/mL; MIC ([10]; Staphylococcus aureus, NO.80, read-out: minimum inhibitory concentration (MIC)): 0.39 µg/mL; MIC [15]: 0.2 µg/mL; MIC [16]: 0.39 µg/mL; MIC [17]: 0.78 µg/mL; MIC [18]: 0.2 µg/mL |
| CCn1cc(C(=O)O)c(=O)c2cc(F)c(N3CCC(NC)C3)nc21.Cl (stereo not shown) [Compound 2, 1-Ethyl-6-fluoro-1,4-dihydro-7-(3-methylamino-1-pyrrolidinyl)-4-oxo-1,8-naphthyridine-3-carboxylic acid hydrochloride] | 42 | far better in vitro antibacterial activity | very high antibacterial activities | 1.4 | > 2000 | very weak; also recorded: low oral toxicity | potent therapeutic effects | better therapeutic effects | 0.2 | 0.39 | 0.78 | 0.2 | 3.13 | 0.78 | 0.1 | 1.56 | 0.1 | 0.2 | 0.1 | 1.56 | MIC ([5]; Escherichia coli, NIHJJC2, read-out: minimum inhibitory concentration (MIC)): 0.2 µg/mL; MIC ([10]; Staphylococcus aureus No. 80, agar dilution, read-out: minimum inhibitory concentration (MIC)): 0.78 µg/mL; MIC [15]: 0.78 µg/mL; MIC [16]: 1.56 µg/mL; MIC [17]: 1.56 µg/mL; MIC [18]: 0.39 µg/mL |
